Measured values from patent US5817685A, “Anticonvulsive imidazoline-2,4-diones and process for making” (Arzneimittelwerk Dresden GmbH, priority 1996, dated 1998).
Where two headings read alike, the source gives them in different places.

Columns and labels:
clonic seizures = settings: dose of pentetrazol that produces solely clonic seizures; cited from earlier work
[1] = tested on: electrically induced seizures (maximum electroshock); assay: maximum electroshock (MES) test in mice; type: in vivo, mouse; settings: ip
Protocol: (§1) They were tested for their anticonvulsive action in vivo after i.p. administration using the international customary mouse animal models described in Pharmac Weekblad, Sc. Ed.
Seizures can also be induced electrically for the identification of anticonvulsant activity. This test is referred to as the MES test for identifying CNS active drugs. A […] (60 Hz) electrical current for 0.2 s is delivered by a corneal electrode to mice. The current is four to five times as large as the threshold current needed to produce the tonic seizure. These specific parameters are used to identify compounds that prevent seizure spread, therapeutic agents for generalized tonic clonic seizures. Therapeutic agents for absence of seizures are undetected. However, when the current is lowered to […], compounds which modify both seizure spread and seizure threshold are identified.
^1 MES = maximum electroshock

[2] = tested on: pentetrazol-induced seizures; assay: s.c. pentetrazol (PTZ) test in mice; type: in vivo; settings: mouse
Protocol: as §1
The most commonly used chemoconvulsant is pentetrazol which can be used as a primary screen for anticonvulsant activity when dosages that produce hindlimb tonic extension are administered. A dose of pentetrazol that produces solely clonic seizures cannot be used as primary screen for new compounds, as phenytoin and carbamazepine have no effect on the blocking of clonic seizures. This test using pentetrazol to induce seizures, used as a primary screen of anticonvulsant activity is referred to in the results below as PEZ.
^2 PTZ = S. C. pentetrazol

[3] = tested on: seizures (maximum electroshock model, pentetrazol test); assay: anticonvulsive action in mouse animal models (maximum electroshock and pentetrazol); type: in vivo; settings: comparison with known antiepileptics
Protocol: They were tested for their anticonvulsive action in vivo after i.p. administration using the international customary mouse animal models described in Pharmac Weekblad, Sc. Ed. The most commonly used chemoconvulsant is pentetrazol which can be used as a primary screen for anticonvulsant activity when dosages that produce hindlimb tonic extension are administered. […] This test using pentetrazol to induce seizures, used as a primary screen of anticonvulsant activity is referred to in the results below as PEZ. Seizures can also be induced electrically for the identification of anticonvulsant activity. […] A […] (60 Hz) electrical current for 0.2 s is delivered by a corneal electrode to mice. The current is four to five times as large as the threshold current needed to produce the tonic seizure. These specific parameters are used to identify compounds that prevent seizure spread, therapeutic agents for generalized tonic clonic seizures. […] However, when the current is lowered to […], compounds which modify both seizure spread and seizure threshold are identified.

[4] = octanol-H2O partition coefficient; type: physicochemical; settings: octanol-water, read-out: Log p (octanol-H2O) partition coeff.
in vivo = settings: mouse, ip
[5] = mouse, i.p., dose 100 mg/kg, read-out: Action % of Animals, MES
[6] = ip, i.p., read-out: Action % of Animals, PTZ
[7] = mouse, i.p., read-out: Action % of Animals, MES

logP [4] | Compound | responders at 100 mg/kg [1, 5] [%] | responders at 100 mg/kg [2, 6] [%] | responders at 30 mg/kg [1, 7] [%] | other results
 | O=C1NC(=O)C(c2ccccc2)(c2ccccc2)N1 [phenytoin] |  |  |  | effect on the blocking of clonic seizures (clonic seizures): no effect
 | NC(=O)N1c2ccccc2C=Cc2ccccc21 [Carbamazepine, reference compound] | 100 | 0 |  | activity in maximum electroshock model or pentetrazol test [3]: active either in the maximum electroshock model, or in the pentetrazol test, but not in both; effect on the blocking of clonic seizures (clonic seizures): no effect
0.69 | O=C1CN(c2c(Cl)cccc2Cl)C(=O)N1 [Example 3, 1-(2,6-dichlorophenyl)imidazoline-2,4-dione] |  | 100 | 100 | 
1.16 | O=C1CN(c2cccc(Cl)c2Cl)C(=O)N1 [Example 2, 1-(2,3-dichlorophenyl)imidazoline-2,4-dione] | 100 | 100 |  | 
0.86 | Cc1cc(Cl)ccc1N1CC(=O)NC1=O [Example 5, 1-(4-chloro-2-methylphenol)imidazoline-2,4-dione] |  |  | 100 | responders at 30 mg/kg [2, 6]: 100%
 | CCCC(CCC)C(=O)O [calcium valproate] |  |  |  | activity in maximum electroshock model or pentetrazol test [3]: active either in the maximum electroshock model, or in the pentetrazol test, but not in both
 | O=C1CN(c2ccccc2F)C(=O)N1 [Example 4, 1-(2-fluorophenyl)imidazoline-2,4-dione] | 100 | 100 |  | 
1.44 | O=C1CN(Cc2c(Cl)cccc2Cl)C(=O)N1 [Example 7, 1-(2,6-dichlorobenzyl)imidazoline-2,4-dione] | 100 | 100 |  | 
1.12 | O=C1CN(Cc2ccccc2Cl)C(=O)N1 [Example 6, 1-(2-chlorobenzyl)imidazoline-2,4-dione] |  |  | 100 | responders at 30 mg/kg [2, 6]: 100%
 | CCCC(CCC)C(=O)O [Valproate, reference compound] |  | 0 |  | responders at 100 mg/kg ([1]; Mus musculus, read-out: Action % of Animals, MES): 0%
 | O=C1CN(Cc2ccccc2C(F)(F)F)C(=O)N1 [Example 9] |  |  | 100 | responders at 30 mg/kg [2, 6]: 100%
0.49 | O=C1CN(c2ccccc2Cl)C(=O)N1 [Example 1, 1-(2-chlorophenyl)imidazoline-2,4-dione] |  |  |  | responders at 300 mg/kg ([1]; mouse, i.p., dose 300 mg/kg, read-out: Action % of Animals, MES): 100%; responders at 300 mg/kg ([2]; ip, i.p., dose 300 mg/kg, read-out: Action % of Animals, PTZ): 0%

Compound | logP [4] | responders at 100 mg/kg [1, 5] [%] | responders at 100 mg/kg [2, 6] [%] | responders at 30 mg/kg [1, 7] [%] | other results
O=C1CN(Cc2c(F)cccc2F)C(=O)N1 [Example 8, 1-(2,6-difluorobenzyl)imidazoline-2,4-dione] | 0.63 | 100 | 100 |  | ED50 ([1]; mouse): 36 mg/kg; TD50 (in vivo): 123 mg/kg; ED50 ([2]; sc): 50 mg/kg
